Laboratory results taken from US6630347B1, “Endothelial NOS transgenic animals and methods of use” (The General Hospital Corporation, priority 1996, dated 2003).
Counter-ions that a name gives are not always drawn. Marks after values point to notes of the source that are not given here.

Tests used:
aortic rings = assay: Endothelium-dependent relaxation of aortic rings in response to acetylcholine; design: species or system mice
Description: The rings were pre-contracted with 10^−7 M norepinephrine and exposed to increasing concentrations of acetylcholine (ACh) from 10^−8 M to 3×10^−5 M. 2-3 segments were collected from each mouse, and five mice were used from the wild-type and eNOS mutant groups. Mean data from each animal were used. Respective tracings are shown. Acetylcholine concentrations are expressed in logM.

NOS binding sites = assay: [3H]L-NG-nitro-arginine autoradiographic binding assay in brain sections; design: species or system mouse; details: for L-NA displaceable [3H]L-NA binding in the presence of D-NA: 10 μM D-NA; for L-NA displaceable [3H]L-NA binding in the presence of 7-NI: 100 μM 7-NI
Experimental: Mice and rats were sacrificed by decapitation under 2% halothane anesthesia (30% O2+70% N2O). The brains were rapidly removed, immediately frozen in powdered dry ice, and stored at −70° C. Twelve μm sagittal or coronal sections were cut in a cryostat-microtome at −18° C. (Leitz 1720, Leica, Deerfield, Ill., U.S.A.) and thaw-mounted onto gelatin-coated slides (1% gelatin and 0.1% KCr2O). Adjacent sections were stained with cresyl violet and hematoxylin eosin, and stored at −70° C.
The method for the autoradiographic visualization of NOS binding using [^3H]L-NG-Nitro-arginine ([^3H]L-NA) has been described previously. Rutherford et al., (1995). Prior to experiments, sections were brought to −20° C. and then to room temperature. Sections were preincubated for 15 min at room temperature in 50 mM Tris-HCl (pH 7.3) to remove the endogenous ligands and/or modulators, then incubated for 30 min at room temperature in 50 mM Tris-HCl buffer containing 10 μM CaCl2 and 25 nM N^G-nitro-L-[2,3,4,5-H]arginine hydrochloride ([^3H]L-NA, specific activity: 48-57 Ci/mmol, Amersham, Arlington Heights, Ill., U.S.A.). Unlabelled L-N^G-nitro-arginiine (L-NA, Sigma, St. Louis, Mo., U.S.A.), D-N^G-nitro-arginine (D-NA, RBI, Natick, Mass., U.S.A.) and 7-nitroindazole (7-NI, Cookson Chemicals Ltd., England) was added at concentrations of 10, 10, and 100 μM, respectively. The sections were then washed twice for 5 min in ice-cold buffer and rinsed for 10 sec in ice-cold distilled water to eliminate residual buffer. After drying with cold air, the slides were tightly apposed to ^3H-Hyperfilm (Amersham) together with tritiated polymer standards (Amersham) and exposed at −4° C. for 6 weeks.
Films were developed in Kodak D-19 and fixed in Kodak Rapid Fixer, according to the manufacturer's instructions. The optical density of the regions of interest was measured by a computer-assisted image analysis (System M4, Imaging Research, St. Catharines, Ontario, Canada). The relationship between optical density and radioactivity was examined with reference to the tritium standards (Amersham, [^3H]microscale) co-exposed with the tissue sections. […] The densities of NOS binding sites are expressed in fmol bound [^3H]L-NA/mg tissue using the [^3H]L-NA concentration of 25 nM.

pial arterioles = assay: Pial arteriole diameter during superfusion in closed cranial window; format: in vivo, mice
Description: The mouse head was fixed in a stereotaxic frame and the skull exposed by a longitudinal skin incision. A stainless steel cranial window ring (8.0 mm in inner diameter, 2.0 mm in height) containing three ports was imbedded into a loop of bone wax over the skull. Dental acrylic was then applied. A craniotomy (2×1.5 mm) was made in the left parietal bone within the ring of the window. After dura was opened and the brain surface superfused with artificial cerebrospinal fluid (aCSF), a cover glass was placed to close the window. The volume under the window was approximately 0.1 ml. The composition of aCSF was as follows (in mMol/L): […] The aCSF was superfused by an infusion pump (0.4 ml/min) via a PE-100 tubing connected to a window port. Intracranial pressure was maintained at 5-8 mm Hg. The temperature of aCSF within the windows was maintained at 36.5-37.0° C. Pial vessels were visualized through a cranial window by an intravital microscope (Leitz, Germany) equipped with a video camera ([…], Hamamatsu Photonics, Hamamatsu, Japan). The diameter of a single pial arteriole (20-30 μm) was continuously measured by a video width analyzer ([…], Hamamatsu, Japan) and recorded using the MacLab data acquisition and analysis system. After baseline stabilization, nitro-L-arginine or nitro-D-arginine solution (1 mM) was superfused into the window and the diameter of pial arteriole measured continuously 40 min thereafter.

[1] = Cerebral infarct size 24 hrs after middle cerebral artery (MCA) occlusion; format: in vivo, mice
Description: Male and female wild-type (SV-129 and C57 Black/6, Taconic Farms, Germantown, N.Y.) and eNOS mutant mice weighing 20 to 26 g were housed under diurnal lighting conditions and allowed free access to food and water ad libitum.
Mice were anesthetized with 2% halothane for induction and maintained on 1% halothane in 70/30% nitrous oxide/oxygen by mask. The right femoral artery was cannulated with PE-10 polyethylene tubing for arterial blood pressure measurement (Gould, Oxnard, Calif.) and blood gas determination (Corning 178, Ciba Corning Diag., Medford, Mass.). Rectal temperature was maintained between 36.5-37.5° C. with a homeothermic blanket system (YSI, Yellow Springs, Ohio).
Focal cerebral ischemia was induced by occlusion of middle cerebral artery (MCA) using the intraluminal filament technique. […] Through a ventral midline incision, the right common and external arteries were isolated and ligated. A microvascular clip (Zen temporary clip, Ohwa Tsusho, Tokyo, Japan) was temporarily placed on the internal artery and the pterygopalatine artery. An 8-0 nylon monofilament (Ethicon, Somerville, N.J.) coated with silicone was introduced through a small incision in the common corotid artery and advanced 10 mm distal to the carotid bifurcation so as to occlude the MCA and posterior communicating artery. The wound was sutured and the animal returned to its cage and allowed free access to water and food.
Twenty-four hours later, animals were sacrificed with an overdoses of pentobarbital and the brains removed and sectioned coronally into five 2-mm slices in a mouse brain matrix. Slices were placed in 2% TTC solution, followed by 10% formalin overnight. […] The infarction area, outlined in white, was measured (Bioquant IV image analysis system) on the posterior surface of each section, and the infarction volume was calculated by summing the infarct volumes of sequential 2 mm thick sections. […]

[2] = eNOS mutant mice; 250 μg/ml in drinking water, daily dose about 750 μg; decrease from 102 mm Hg
Experimental: The effect of hypertension in vascular injury responses (both filament and cuff models) is measured by repeating the experiments after treating eNOS mutant mice with hydralazine to reduce their blood pressure to normotensive levels.

[3] = Physiological data (blood gases, MABP) before MCA occlusion and after ischemia; format: in vivo, mice
Experimental: The right femoral artery was cannulated with PE-10 polyethylene tubing for arterial blood pressure measurement (Gould, Oxnard, Calif.) and blood gas determination (Corning 178, Ciba Corning Diag., Medford, Mass.). Rectal temperature was maintained between 36.5-37.5° C. with a homeothermic blanket system (YSI, Yellow Springs, Ohio). […] The investigator was blinded to the treatment group in this protocol.

[4] = Blood pressure responses to L-NA (femoral artery catheterization); format: in vivo, mice
Experimental: Mice were kept at normal temperature (37° C.), anesthetized with urethane ([…], intraperitoneal injection) or halothane inhalation, and ventilated using an SAR-830 mouse ventilator (CWE Instruments). Depth of anesthesia was adjusted to keep the blood pressure of animals unresponsive to tail-pinch with forceps. End-tidal CO2 was monitored with a microcapnometer and kept constant by adjustment of respiratory parameters. The right femoral artery was cannulated using stretched PE-10 polyethylene tubing (Clay Adams) for mean arterial blood pressure recordings using an ETH-400 transducer and a MacLab data acquisition system (ADI Instruments). For awake measurements, the femoral artery catheter was placed under halothane anesthesia and the wound was covered with 1% xylocane ointment to diminish discomfort. Recordings were made within one hour of the procedure. Data are expressed as means with standard deviation. Statistical evaluation was performed by t-test.
Mean arterial blood pressure (MABP) of urethane-anesthetized wild-type (solid line in FIG. 5) and eNOS mutant mice (dotted line in FIG. 5) were measured by femoral artery catheterization and recorded for 30 minutes of baseline before L-NA administration (arrows in FIG. 5). At time 0, 12 mg/kg of L-NA was given intraperitoneally. […] The blood pressure of eNOS mutant mice dropped from a baseline of 98 mm Hg to 66 mm Hg (n=5). […]

[5] = Babbedge et al. (1993); cited from earlier work
[6] = Amygdaloid complex, nNOS mutant
[7] = Cerebellum (molecular layer), SV-129
[8] = Cerebellum (molecular layer), nNOS mutant
[9] = Hippocampal CA3 subfield, SV-129
[10] = Hippocampal CA3 subfield, nNOS mutant

## CC(=O)OCC[N+](C)(C)C [acetylcholine]
Aortic rings; wild-type aortic segments pre-contracted with 10^-7 M norepinephrine, acetylcholine 3×10^-5 M
  pre-addition tone present after acetylcholine: 60.3±14.6%

## NC(=N[N+](=O)[O-])NCCCC(N)C(=O)O [L-NA, L-nitroarginine]
NOS binding sites; 10 μM, all brain regions of all mouse strains
  density of [3H]L-NA binding sites in the presence of L-NA: very low
Pial arterioles; 1 mM superfusion
  change in MABP during superfusion: no change
Pial arterioles; eNOS mutant mice, 1 mM superfusion for 40 min
  pial vessel diameter: increased
[1]; protocol 2, wild-type mice
  change of lesion size after MCA occlusion: did not change
Aortic rings; wild-type vessel rings, 10^-4 M L-NA for 1 hour
  acetylcholine-induced relaxation after L-NA treatment: abolished

## NNc1nncc2ccccc12 [hydralazine, hydralazine hydrochloride]
[2]
  mean arterial pressure after hydralazine: 72 mm Hg
[1]; eNOS mutants made normotensive by hydralazine
  change of infarct size: did not change
[1]; protocol 1, eNOS mutant mice made normotensive by hydralazine 1 mg/kg ip 1 hr before and 5, 17 hrs after MCA occlusion, n=10
  infarct volume: 48±7 % of hemisphere
[3]; eNOS mutant mice given hydralazine vs wild-type mice
  MABP difference between groups after hydralazine administration: did not differ
[3]; protocol 1, eNOS mutant, hydralazine, 10 min before MCA occlusion
  MABP before: 102 ± 6 mmHg
[3]; protocol 1, eNOS mutant, hydralazine, 24 hrs after ischemia
  MABP after: 102 mmHg

## NC(=N[N+](=O)[O-])NCCCC(N)C(=O)O [D-NA, D-N^G-nitro-arginine]
NOS binding sites; Amygdaloid complex, SV-129
  L-NA displaceable [3H]L-NA binding in the presence of D-NA: 64 ± 7.6 fmol/mg tissue
NOS binding sites; [6]
  L-NA displaceable [3H]L-NA binding in the presence of D-NA: 3 ± 1.7*^,# fmol/mg tissue
NOS binding sites; [7]
  L-NA displaceable [3H]L-NA binding in the presence of D-NA: 59 ± 6.7 fmol/mg tissue
NOS binding sites; [8]
  L-NA displaceable [3H]L-NA binding in the presence of D-NA: 0 ± 3.6*^,# fmol/mg tissue
NOS binding sites; Dentate gyrus, SV-129
  L-NA displaceable [3H]L-NA binding in the presence of D-NA: 43 ± 4.8 fmol/mg tissue
NOS binding sites; Dentate gyrus, nNOS mutant
  L-NA displaceable [3H]L-NA binding in the presence of D-NA: 2 ± 1.9*^,# fmol/mg tissue
NOS binding sites; [9]
  L-NA displaceable [3H]L-NA binding in the presence of D-NA: 66 ± 5.9 fmol/mg tissue
NOS binding sites; [10]
  L-NA displaceable [3H]L-NA binding in the presence of D-NA: 3 ± 1.9*^,# fmol/mg tissue
NOS binding sites; Olfactory bulb (granular layer), SV-129
  L-NA displaceable [3H]L-NA binding in the presence of D-NA: 92 ± 10.8 fmol/mg tissue
NOS binding sites; Olfactory bulb (granular layer), nNOS mutant
  L-NA displaceable [3H]L-NA binding in the presence of D-NA: 5 ± 3.0*^,# fmol/mg tissue
Pial arterioles; eNOS mutant mice, 1 mM superfusion
  change in pial diameter: No change
[4]; wild-type and eNOS mutant mice, 12 mg/kg
  blood pressure effects as seen with L-NA: not seen

## N=C(N)NCCC[C@H](N)C(=O)O [L-arginine]
[4]; 200 mg/kg, intraperitoneal
  effect on the blood pressure responses to L-NA: prevented

## O=[N+]([O-])c1cccc2cn[nH]c12 [7-NI, 7-nitroindazole]
NOS binding sites; 100 μM, all regions measured, wild-type and eNOS mutant mice
  [3H]L-NA binding in the presence of 7-NI: significantly decreased
NOS binding sites; Amygdaloid complex, C57black/6
  L-NA displaceable [3H]L-NA binding in the presence of 7-NI: 21 ± 4.8 fmol/mg tissue
NOS binding sites; Amygdaloid complex, SV-129
  L-NA displaceable [3H]L-NA binding in the presence of 7-NI: 21 ± 2.1 fmol/mg tissue
NOS binding sites; Amygdaloid complex, eNOS mutant
  L-NA displaceable [3H]L-NA binding in the presence of 7-NI: 21 ± 2.9 fmol/mg tissue
NOS binding sites; [6]
  L-NA displaceable [3H]L-NA binding in the presence of 7-NI: 23 ± 2.5 fmol/mg tissue
NOS binding sites; Cerebellum (molecular layer), C57black/6
  L-NA displaceable [3H]L-NA binding in the presence of 7-NI: 23 ± 5.4 fmol/mg tissue
NOS binding sites; [7]
  L-NA displaceable [3H]L-NA binding in the presence of 7-NI: 18 ± 1.3 fmol/mg tissue
NOS binding sites; Cerebellum (molecular layer), eNOS mutant
  L-NA displaceable [3H]L-NA binding in the presence of 7-NI: 20 ± 2.2 fmol/mg tissue
NOS binding sites; [8]
  L-NA displaceable [3H]L-NA binding in the presence of 7-NI: 24 ± 1.0 fmol/mg tissue
NOS binding sites; Dentate gyrus, C57black/6
  L-NA displaceable [3H]L-NA binding in the presence of 7-NI: 22 ± 4.6 fmol/mg tissue
NOS binding sites; Dentate gyrus, SV-129
  L-NA displaceable [3H]L-NA binding in the presence of 7-NI: 18 ± 0.7 fmol/mg tissue
NOS binding sites; Dentate gyrus, eNOS mutant
  L-NA displaceable [3H]L-NA binding in the presence of 7-NI: 20 ± 2.7 fmol/mg tissue
NOS binding sites; Dentate gyrus, nNOS mutant
  L-NA displaceable [3H]L-NA binding in the presence of 7-NI: 22 ± 1.7 fmol/mg tissue
NOS binding sites; Hippocampal CA3 subfield, C57black/6
  L-NA displaceable [3H]L-NA binding in the presence of 7-NI: 22 ± 4.7 fmol/mg tissue
NOS binding sites; [9]
  L-NA displaceable [3H]L-NA binding in the presence of 7-NI: 18 ± 1.8 fmol/mg tissue
NOS binding sites; Hippocampal CA3 subfield, eNOS mutant
  L-NA displaceable [3H]L-NA binding in the presence of 7-NI: 21 ± 1.8 fmol/mg tissue
NOS binding sites; [10]
  L-NA displaceable [3H]L-NA binding in the presence of 7-NI: 23 ± 2.3 fmol/mg tissue
NOS binding sites; Olfactory bulb (glanular layer), C57black/6
  L-NA displaceable [3H]L-NA binding in the presence of 7-NI: 28 ± 4.1 fmol/mg tissue
NOS binding sites; Olfactory bulb (glanular layer), SV-129
  L-NA displaceable [3H]L-NA binding in the presence of 7-NI: 17 ± 0.7 fmol/mg tissue
NOS binding sites; Olfactory bulb (glanular layer), nNOS mutant
  L-NA displaceable [3H]L-NA binding in the presence of 7-NI: 30 ± 2.7 fmol/mg tissue
[5]
  effect on blood pressure: does not increase blood pressure
